Data published in patent US20250179022A1, “COMPOUND USED AS TYK2 INHIBITOR, PREPARATION METHOD THEREFOR, AND PHARMACEUTICAL USE THEREOF” (SHANGHAI ZHIGEN PHARMACEUTICAL & TECHNOLOGY CO. LTD., priority 2022, published 2025).

How the values were obtained:
Type in all cases: cell-based
[1] = biological target: T1, TYK2 (Homo sapiens, UniProt P29597, E957D); test: TYK2 kinase activity inhibition assay (Ba/F3-FL-TYK2-E957D cell proliferation, CellTiter-Glo); conditions: 72 h
T1 construct: host or cells: Ba/F3 (murine B lymphocytes)
T1 sequence (P29597 whole entry E957D): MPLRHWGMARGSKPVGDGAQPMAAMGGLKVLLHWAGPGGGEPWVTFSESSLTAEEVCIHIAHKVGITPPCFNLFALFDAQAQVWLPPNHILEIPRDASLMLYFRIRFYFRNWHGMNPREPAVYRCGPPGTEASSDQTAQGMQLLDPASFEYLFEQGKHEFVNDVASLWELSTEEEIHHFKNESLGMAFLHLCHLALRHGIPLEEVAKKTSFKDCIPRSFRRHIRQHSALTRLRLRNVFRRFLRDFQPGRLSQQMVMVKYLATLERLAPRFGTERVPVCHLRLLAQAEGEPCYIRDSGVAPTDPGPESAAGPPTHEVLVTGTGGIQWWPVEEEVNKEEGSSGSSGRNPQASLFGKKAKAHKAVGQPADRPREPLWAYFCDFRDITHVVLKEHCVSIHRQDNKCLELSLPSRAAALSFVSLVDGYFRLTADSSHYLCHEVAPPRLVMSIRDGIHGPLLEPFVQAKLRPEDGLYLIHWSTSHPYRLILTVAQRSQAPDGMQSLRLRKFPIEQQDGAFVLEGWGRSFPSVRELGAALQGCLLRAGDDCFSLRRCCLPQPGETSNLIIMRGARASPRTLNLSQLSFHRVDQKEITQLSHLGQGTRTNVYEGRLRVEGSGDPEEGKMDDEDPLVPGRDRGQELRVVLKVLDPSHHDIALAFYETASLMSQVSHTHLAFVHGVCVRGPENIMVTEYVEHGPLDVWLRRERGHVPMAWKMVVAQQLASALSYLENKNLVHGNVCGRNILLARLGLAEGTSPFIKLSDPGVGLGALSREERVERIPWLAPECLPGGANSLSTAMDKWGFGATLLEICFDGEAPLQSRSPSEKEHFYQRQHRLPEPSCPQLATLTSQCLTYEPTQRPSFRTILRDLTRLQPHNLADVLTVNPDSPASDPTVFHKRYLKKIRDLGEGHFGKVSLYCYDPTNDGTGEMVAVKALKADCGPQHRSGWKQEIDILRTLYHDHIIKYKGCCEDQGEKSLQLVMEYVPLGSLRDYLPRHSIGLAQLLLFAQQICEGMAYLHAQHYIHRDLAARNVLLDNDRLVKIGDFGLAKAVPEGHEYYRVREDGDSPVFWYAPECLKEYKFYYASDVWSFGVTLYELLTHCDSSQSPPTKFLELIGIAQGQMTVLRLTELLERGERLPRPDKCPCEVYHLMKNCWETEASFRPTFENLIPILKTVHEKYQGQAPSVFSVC
Description: The TYK2 kinase gene was introduced into wild-type murine-derived B lymphocytes (BaF3) to construct the Ba/F3-FL-TYK2-E957D stable cell line.
In this experiment, the inhibitory effect of the compounds on the proliferation of Ba/F3-FL-TYK2-E957D cells were tested, apoptosis was detected, and the IC50 value was calculated. The inhibitory activity of the compounds against TYK2 kinase was evaluated based on the IC50 value.
(§1) The tested compounds, powder and stored at room temperature, were prepared into 10 mM stock solution with DMSO and stored at −20° C. away from light for use.
Compounds were prepared into dilute solutions which was 1000 times of the final concentration. The compound was prepared into 20-times of the final concentration by diluting the compound with culture medium. 2 ul of 1000-times compound was added to per well to 98 ul of culture medium.
(§2) Cells (provided by Sundia Pharmaceutical Technology (Shanghai) Co., Ltd.) were resuspended and counted using an automated cell counter. The cell suspension was diluted to the desired density based on BaF3 seeding density of 2000 cells per well. Each well was plated with 95 ul of cells and incubated at 37° C. for stable equilibrium. 5 ul of 20-times compound was added to each well, with the wells to which the same volume of DMSO was added as a control.
The cell plate was equilibrated to room temperature. 40 ul CellTiter-Glo® Reagent was added to each well, shaken for 2 minutes and allowed to stand for 10 minutes. Detected with SpectraMax Paradigm.
• (1) IC50 was calculated using GraphPad Prism 5. • (2) % Inh=(Max signal−Compound signal)/(Max signal−Min signal)×100. • (3) Max signal was the positive control well with only the same volume of DMSO as the compound. • (4) Min signal was the negative control well with only the culture medium.

[2] = biological target: T2, JAK3 (Homo sapiens, UniProt P52333, cells depend on it, form not given); test: JAK family kinase selectivity assay, Ba/F3-TEL-JAK3 cell proliferation; conditions: Ba/F3-TEL-JAK3, 72 h; read-out: Ba/F3 Cell IC50 JAK3
T2 construct: fused on or other part: N-terminal part of TEL (ETV6) as oligomerising partner; P41212 (Transcription factor ETV6)
T2 sequence (P52333 822-1111 limits assumed, change not shown): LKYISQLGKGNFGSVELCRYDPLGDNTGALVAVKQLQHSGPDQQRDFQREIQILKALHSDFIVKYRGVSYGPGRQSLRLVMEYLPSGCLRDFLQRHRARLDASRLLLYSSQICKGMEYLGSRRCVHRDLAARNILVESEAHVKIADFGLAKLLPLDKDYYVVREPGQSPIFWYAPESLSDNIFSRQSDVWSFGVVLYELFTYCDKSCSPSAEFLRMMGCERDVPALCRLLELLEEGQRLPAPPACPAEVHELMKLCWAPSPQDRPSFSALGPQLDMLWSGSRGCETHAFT
Source text: (§3) There are four kinases in the JAK family, respectively TYK2, JAK1, JAK2 and JAK3. JAK family kinase genes were introduced into the wild-type murine B lymphocytes (BaF3), and four BaF3 engineered cell lines were constructed respectively (Ba/F3-FL-TYK2-E957D, Ba/F3-TEL-JAK1, Ba/F3-TEL-JAK2, Ba/F3-TEL-JAK3). The growth and proliferation of these engineered cell lines were not dependent on IL-3, but on exogenously transferred JAK family kinases.
(§4) In this experiment, the inhibitory effects of the compounds on the proliferation of four cell types, Ba/F3-FL-TYK2-E957D, Ba/F3-TEL-JAK1, Ba/F3-TEL-JAK2, and Ba/F3-TEL-JAK3 were tested, and apoptosis was detected, and the IC50 values were calculated. The inhibitory activities of the compounds against TYK2, JAK1, JAK2, and JAK3 kinases were evaluated based on the IC50 value, thus assessing the JAK family kinase selectivity of the compounds.
as §1
(§5) Compounds were formulated into dilute solutions which was 1000 times of the final concentration. The compound was prepared into 20-times of final concentration by diluting the compound with culture medium. 2 ul of 1000-times compound was added per well to 98 ul of culture medium.
as §2, with “5 ul of 20-times compound was added to each well, with the wells to which the same volume of DMSO was added as a control.” left out
(§6) The cell plate was equilibrated to room temperature. […] Detected with SpectraMax Paradigm.
(§7) • (1) IC50 was calculated using GraphPad Prism 5. • (2) % Inh=(Max signal-Compound signal)/(Max signal-Min signal)×100. • (3) Max signal was the positive control well with only the same volume of DMSO as the compound. • (4) Min signal was the negative control well with only the culture medium.

[3] = biological target: T3, JAK2 (Homo sapiens, UniProt O60674, cells depend on it, form not given); test: JAK family kinase selectivity assay, Ba/F3-TEL-JAK2 cell proliferation; conditions: Ba/F3-TEL-JAK2, 72 h; read-out: Ba/F3 Cell IC50 JAK2
T3 construct: fused on or other part: N-terminal part of TEL (ETV6) as oligomerising partner; it is the second protein of the fusion and part of the key; P41212 (Transcription factor ETV6)
T3 sequence (O60674 849-1132 limits assumed, change not shown): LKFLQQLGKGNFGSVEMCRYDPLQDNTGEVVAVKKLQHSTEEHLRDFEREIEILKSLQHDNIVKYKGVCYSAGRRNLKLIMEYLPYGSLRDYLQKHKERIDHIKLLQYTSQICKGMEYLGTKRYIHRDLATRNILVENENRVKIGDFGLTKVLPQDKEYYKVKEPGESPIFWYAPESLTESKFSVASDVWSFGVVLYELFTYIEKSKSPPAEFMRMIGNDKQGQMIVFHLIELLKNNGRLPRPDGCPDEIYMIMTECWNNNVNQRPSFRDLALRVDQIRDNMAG
Source text: as §3, §4, §1, §5
as §2, with “5 ul of 20-times compound was added to each well, with the wells to which the same volume of DMSO was added as a control.” left out
as §6, §7

[4] = biological target: T4, JAK1 (Homo sapiens, UniProt P23458, cells depend on it, form not given); test: JAK family kinase selectivity assay, Ba/F3-TEL-JAK1 cell proliferation; conditions: Ba/F3-TEL-JAK1, 72 h; read-out: Ba/F3 Cell IC50 JAK1
T4 construct: fused on or other part: N-terminal part of TEL (ETV6) as oligomerising partner; P41212 (Transcription factor ETV6)
T4 sequence (P23458 875-1154 limits assumed, change not shown): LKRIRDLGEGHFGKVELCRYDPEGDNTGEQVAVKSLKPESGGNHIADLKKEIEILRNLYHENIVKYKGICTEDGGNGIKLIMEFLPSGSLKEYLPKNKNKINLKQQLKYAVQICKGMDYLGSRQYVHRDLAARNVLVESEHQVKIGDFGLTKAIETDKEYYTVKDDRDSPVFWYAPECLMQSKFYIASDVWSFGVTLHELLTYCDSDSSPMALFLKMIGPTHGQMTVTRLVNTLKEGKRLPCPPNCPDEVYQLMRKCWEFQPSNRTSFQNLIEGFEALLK
Source text: as §3
as §4, with “compounds. […]” for “compounds.”
(§8) Cells (provided by Sundia Pharmaceutical Technology (Shanghai) Co., Ltd.) were resuspended and counted using an automated cell counter. […]
as §6, §7

[5] = biological target: T1, TYK2; test: JAK family kinase selectivity assay, Ba/F3-FL-TYK2-E957D cell proliferation; conditions: 72 h
Source text: as §3
as §4, with “compounds. […]” for “compounds.”
as §8, §6, §7

[6] = biological target: T5, hERG potassium channel (Homo sapiens, UniProt Q12809); test: hERG potassium channel inhibition assay (CHO-hERG cells, Qpatch automated patch clamp); conditions: highest tested concentration 40 μM
T5 construct: expressed in transfected cells; host or cells: CHO
T5 sequence (Q12809 whole entry): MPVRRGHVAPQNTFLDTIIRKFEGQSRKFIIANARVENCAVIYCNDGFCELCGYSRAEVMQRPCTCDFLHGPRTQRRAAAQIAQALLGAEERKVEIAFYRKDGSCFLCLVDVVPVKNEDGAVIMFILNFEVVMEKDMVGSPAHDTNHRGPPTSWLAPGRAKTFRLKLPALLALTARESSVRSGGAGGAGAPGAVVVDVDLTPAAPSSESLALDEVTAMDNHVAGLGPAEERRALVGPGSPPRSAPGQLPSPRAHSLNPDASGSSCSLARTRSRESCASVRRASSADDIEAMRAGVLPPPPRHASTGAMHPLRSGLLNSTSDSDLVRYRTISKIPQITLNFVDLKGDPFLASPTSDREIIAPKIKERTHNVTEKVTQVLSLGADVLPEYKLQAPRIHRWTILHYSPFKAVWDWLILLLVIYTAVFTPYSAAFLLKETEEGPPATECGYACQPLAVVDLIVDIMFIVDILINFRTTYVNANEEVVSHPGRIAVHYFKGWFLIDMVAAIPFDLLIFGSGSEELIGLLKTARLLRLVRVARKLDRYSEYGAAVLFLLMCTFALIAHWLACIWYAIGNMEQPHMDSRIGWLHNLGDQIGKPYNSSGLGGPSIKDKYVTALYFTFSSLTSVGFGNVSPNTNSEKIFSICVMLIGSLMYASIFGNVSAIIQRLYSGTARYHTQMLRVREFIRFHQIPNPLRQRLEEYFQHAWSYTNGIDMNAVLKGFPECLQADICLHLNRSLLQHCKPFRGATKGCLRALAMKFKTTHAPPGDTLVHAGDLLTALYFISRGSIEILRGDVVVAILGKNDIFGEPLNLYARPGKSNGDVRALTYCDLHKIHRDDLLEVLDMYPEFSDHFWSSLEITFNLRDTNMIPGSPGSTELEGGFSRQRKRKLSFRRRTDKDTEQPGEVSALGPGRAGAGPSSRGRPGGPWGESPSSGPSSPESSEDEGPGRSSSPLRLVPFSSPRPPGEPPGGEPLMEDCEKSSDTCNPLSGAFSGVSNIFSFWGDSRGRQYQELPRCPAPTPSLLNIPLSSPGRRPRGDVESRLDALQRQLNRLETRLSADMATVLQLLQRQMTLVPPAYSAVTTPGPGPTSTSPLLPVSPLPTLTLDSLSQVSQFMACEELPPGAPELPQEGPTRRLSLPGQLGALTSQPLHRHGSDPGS
Description: 4.1 Purpose of the Experiment The blocking effect of the compounds in the present invention on hERG potassium currents on stable cell lines transfected with hERG potassium channels was tested by applying a fully automated membrane clamp.
CHO-hERG cells were cultured in 175 cm^2 culture flasks, and when the cell density grew to 60-80%, the culture medium was removed and washed with 7 ml of PBS (Phosphate Buffered Saline), and then 3 ml of Detachin was added for digestion.
When digestion was completed, 7 ml of culture medium was added to neutralize the cells, then centrifuged, the supernatant was removed, and 5 ml of culture medium was added to resuspend the cells to ensure that the cell density is 2-5×10^6/ml.
The single-cell high-impedance sealing and whole-cell pattern formation processes were all automated with the Qpatch instrument. After obtaining the recording pattern, the cells were clamped at −80 mV, and a −50 mV preconditioning voltage was given for 50 ms prior to giving a +40 mV depolarizing stimulus for 5 s. The cell was then repolarized to −50 mV to be maintained for 5 s and then returned to −80 mV. This voltage stimulus was applied every 15 s. […]
The experimental data was analyzed by XLFit software.

Row | IC50 [1] [nM] | GI50 [2] [nM] | GI50 [3] [nM] | GI50 [4] [nM] | IC50 [5] [nM] | Compound | IC50 [6] [µM]
1 | 0.6 | > 1000 | > 1000 | > 1000 | 0.6 | [2H]C([2H])([2H])NC(=O)c1nnc(NC(=O)C2CC2)cc1Nc1nc(N)c(Cl)cc1[S@@](C)(=O)=NC [Example 28] | > 30
2 | 1.1 | > 1000 | > 1000 | > 1000 | 1.1 | [2H]C([2H])([2H])NC(=O)c1nnc(NC(=O)C2CC2)cc1Nc1nc(N)c(Cl)cc1[S@](C)(=N)=O [Example 29, (R)-4-((6-amino-5-chloro-3-(S-methylsulfoximino)pyridin-2-yl)amino)-6-(cyclopropylcarboxamido)-N-(methyl-d3)pyridazine-3-carboxamide] | > 30
